According to patent publication US10801024B2, “Inhibition of lncRNA HOTAIR and related materials and methods” (Indiana University Research and Technology Corporation, priority 2015, dated 2020):

Experiments:
[1] = Mouse xenograft: body weight, spleen and liver weight, histology; format: in vivo
Protocol: In another exemplary method, to investigate anti-tumor properties of pHLIP-PNA3 in vivo, BALB/C mice were subcutaneously injected with CDDP-resistant A2780_CR5 (2×10^6 cells). Once tumors reached ˜200 mm^3, mice were injected intravenously (two times per week for 2 weeks) with pHLIP-PNA3 (1 mg/kg), pHLIP-control PNA (1 mg/kg), and/or CDDP (2 mg/kg i.p.) at indicated times (FIG. 14A). Tumor volume was reduced (p=0.02) in mice co-administered pHLIP-PNA3+CDDP compared to pHLIP-control PNA+CDDP (FIG. 13A). Tumor volume in mice treated with either pHLIP-PNA alone was similar to vehicle-treated mice (FIG. 14A). Importantly, survival of mice treated with pHLIP-PNA3 vs. mock was increased 1.6-fold (39 vs. 25 days; FIG. 13B), and body weight was similar among groups (FIG. 14B), showing that PNAs are non-toxic in vivo. […]
All animal studies adhered to ethical regulations and protocols. To assess tumorigenicity of cells, cultured A2780_CR5 cells were washed with PBS trypsinized and counted with trypan blue, re-suspended in 1:1 PBS/matrigel (BD Bioscience) and 2×10^6 cells were injected subcutaneously into the left flank of 3- to 4-week-old female nude athymic mice (BALB/c-nu/nu; Harlan, Indianapolis, Ind.). […] Tumor length (l) and width (w) were measured biweekly using digital calipers and tumor volume (v) was calculated as v=½×1×w2. […]

IL-6, MMP-9 and ALDH1A1 = test: Mouse xenograft: blood IL-6 (ELISA) and tumor expression of HOTAIR targets; format: in vivo, mice; conditions: CDDP alone; after the second bi-weekly treatment
A2780_CR5 [2] = test: Mouse xenograft: tumor volume and survival; format: in vivo; conditions: CDDP-treated mice
Protocol: All animal studies adhered to ethical regulations and protocols. To assess tumorigenicity of cells, cultured A2780_CR5 cells were washed with PBS trypsinized and counted with trypan blue, re-suspended in 1:1 PBS/matrigel (BD Bioscience) and 2×10^6 cells were injected subcutaneously into the left flank of 3- to 4-week-old female nude athymic mice (BALB/c-nu/nu; Harlan, Indianapolis, Ind.). Engrafted mice (n=6 per group) were inspected three times per week for tumor appearance by visual observation and palpation. Once tumors were ˜200 mm^3, mice were treated with either CDDP (2 mg kg−1) or PNA (1 mg kg−1) or both CDDP and PNA twice per week for two weeks. Blood samples were collected by puncturing the left lateral saphenous vein with a needle and collected using a capillary tube. Tumor length (l) and width (w) were measured biweekly using digital calipers and tumor volume (v) was calculated as v=½×1×w2. No randomization was used and no animals were excluded from the final data. […]

A2780_CR5 [3] = test: Survival assay after inhibiting HOTAIR and/or EZH2; format: cell-based; conditions: dsiRNA targeting HOTAIR combined with GSK126; platinum-resistant cells
Protocol: In one exemplary method, the effect of inhibiting both HOTAIR and EZH2 on cancer cell survival was investigated. A highly platinum-resistant ovarian cancer cell line (A2780_CR5) was treated with dsiRNA targeting HOTAIR and/or a pharmacological inhibitor of EZH2 (GSK126), followed by survival assays. As an additive (P<0.05) effect of inhibiting HOTAIR-EZH2 on drug sensitivity and survival was observed (versus inhibiting either factor alone; FIG. 2A), it was next of interest to target the HOTAIR-EZH2 interaction by targeting the 89-mer minimum interacting region of HOTAIR, which has been shown. mFold (Zuker, M., Mfold web server for nucleic acid folding and hybridization prediction. Nucleic acids research, 2003. 31(13):3406-3415, incorporated herein by reference in its entirety) was used to validate the predicted secondary structure of this site, observing a highly predicted, single-stranded region in all 19 predicted structures, which complemented previous such structures (FIG. 3A).

A2780_CR5 [4] = test: Cell invasion assay (matrigel); format: cell-based; conditions: FIGS. 5D-5E (A2780_CR5 and SKBR-3)
Protocol: In another exemplary method, ovarian cancer cells and breast cancer cells were treated with PNA3 or control PNA. Decreased (P<0.05) invasion of A2780_CR5 (2-fold, FIG. 5D), Kuramochi (0.6-fold, FIG. 9A) and SKBR-3 (2-fold, FIG. 5E) was observed, and the effect of PNA3 on cell invasion was essentially similar to knocking-down HOTAIR expression using siRNA (FIGS. 5D-5E). PNA3 or control PNA had no effect on A2780p and MDA-MB-231 cell invasion (FIGS. 9B-9C).
Cells were grown in 6 cm culture plates until 70% confluence and treated with either PNA3 or control PNA (1 μM final) for 24 hr. Next day, the plates were trypsinized, serially diluted and 50,000 cells were seeded inside a matrigel invasion chamber insert (Corning, Cat #354480) in serum-free media supplemented with 0.1% BSA. Media supplemented with 20% FBS was added to the bottom of the well and 48 hrs later, cells were fixed and dyed using Wright-Giemsa method (Hema 3 Stat pack, Cat #23-122-929) and invasion was counted under a light microscope at 20× magnification. Relative cell invasion was measured by dividing the control number of invaded cells by the PNA-treated samples.

HOTAIR expression = test: Cytokine/chemokine screen, HOTAIR levels; format: cell-based; conditions: A2780 p cells, 10 ng/mL
Protocol: FIG. 11A is a line graph showing changes in HOTAIR target gene expression in A2780 p cells treated with IGF, TGF-β, EGF, IL-1α, or TNF-α (10 ng/mL). Asterisks indicate P<0.05 (*) or P<0.01 (**).
As a positive association between HOTAIR and the master transcription factor NF-κB has been reported. […] In an exemplary method, a cytokine/chemokine screen was performed, followed by the measurement of HOTAIR levels. Of the cytokines examined, HOTAIR expression was increased (P<0.05) by TNF-α (>15-fold) and TGF-β (5-fold) compared to control (FIG. 11A). To further confirm HOTAIR induction of NF-κB, a luciferase reporter construct containing the E-selectin promoter was used (861 base pairs containing 3 canonical NF-κB-p65-binding sites as a positive control; FIG. 3B) (Ozes, O. N., et al., NF-κB activation by tumour necrosis factor requires the Akt serine-threonine kinase. Nature, 1999. 401(6748):82-85, incorporated herein by reference in its entirety) and a 1.4-fold increase (p<0.05) in luciferase activity was observed by ectopic overexpression of HOTAIR compared to vector control (FIG. 11B), which was decreased (P<0.05) by PNA3 (FIG. 11B). PNA3 treatment of breast and ovarian cancer cells decreased (P<0.05) IL-6 secretion into the media (FIG. 11C). […]

## [NH2][Pt]([NH2])([Cl])[Cl] [CDDP, cisplatin]
[1]; CDDP treatment
  spleen size compared to mock treated: increased
[1]; similar trend as spleen
  liver size: none were statistically significant
IL-6, MMP-9 and ALDH1A1
  blood IL-6 levels compared to controls: increased
A2780_CR5 [2]
  H&E slides of tumors: fewer cells

## CC[C@H](C)n1cc(C)c2c(C(=O)NCc3c(C)cc(C)[nH]c3=O)cc(-c3ccc(N4CCNCC4)nc3)cc21 [GSK126]
A2780_CR5 [3]
  effect on drug sensitivity and survival of inhibiting both HOTAIR and EZH2 versus either alone: additive

## dsiRNA targeting HOTAIR: dsiRNA targeting human HOTAIR, sense SEQ ID NO: 22, antisense SEQ ID NO: 23 (sense UUCUAAAUCCGUUCCAUUCCACUGCGA; antisense GCAGUGGAAUGGAACGGAUUUAGAA; antisense strand carries a 5'-phosphate, other chemistry not given here, further chemistry not given here)
A2780_CR5 [3]
  effect on drug sensitivity and survival of inhibiting both HOTAIR and EZH2 versus either alone: additive
A2780_CR5 [4]
  cell invasion, in words: decrease

## TNF-α
HOTAIR expression
  HOTAIR expression increase compared to control: > 15 fold

## TGF-β
HOTAIR expression
  HOTAIR expression increase compared to control: 5 fold
